# Test results: publication PMC8231992, “Protease Substrate-Independent Universal Assay for Monitoring Digestion of Native Unmodified Proteins” (International Journal of Molecular Sciences, 2021)
# Target: T1, papain (Carica papaya, UniProt P00784)
# T1 sequence (P00784 134-345): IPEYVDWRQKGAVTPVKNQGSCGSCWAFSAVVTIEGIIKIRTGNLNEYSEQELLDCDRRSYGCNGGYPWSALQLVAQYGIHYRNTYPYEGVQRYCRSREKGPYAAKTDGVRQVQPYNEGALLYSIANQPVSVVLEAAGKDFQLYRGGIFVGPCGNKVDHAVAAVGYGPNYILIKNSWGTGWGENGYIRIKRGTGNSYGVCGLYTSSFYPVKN
# Experiment: protein-probe time-resolved luminescence digestion assay, heat-denatured carbonic anhydrase substrate ([…] with native substrate)
# Type: biochemical
smiles,measurement,value
CC(C)C[C@H](NC(=O)[C@H]1O[C@@H]1C(=O)O)C(=O)NCCCCN=C(N)N [E-64],IC50,8.9 ± 0.9 nM
